From patent US20240327462A1, “SHORT PEPTIDES, PHARMACEUTICAL COMPOSITIONS COMPRISING THE SAME, AND USES THEREOF IN TREATING NEUROLOGICAL DISEASES” (FU JEN CATHOLIC UNIVERSITY, priority 2023, published 2024)

Key:
ALS SOD1G93A mice [1] = assay: Denervation of neuromuscular junction (NMJ) in ALS SOD1G93A mice; assay type: in vivo; conditions: 250 ug (about 10 mg/Kg) i.v. weekly from day 60; gastrocnemius muscle of 75-day-old mice; vs PBS-injected mouse
Description: (§1) Transgenic mice of the congenic strain ALS SOD1^G93A carrying human SOD1 with the pathogenic G93A mutation (a mouse model of ALS that developed stereotyped phenotypes resembling the symptoms in ALS patients) were purchased from The Jackson Laboratory (JAX). The present peptide (i.e., FD1, FD2, FD3 or FD4) was initiated to inject intravenously in an amount of 250 ug (about 10 mg/Kg) into 60-day-old ALS SOD1^G93A mice. Injection was performed weekly. Injection of PBS served as a control group. The treated mice were monitored daily and analyzed via video tracking software.
To study the denervation of NMJ, the gastrocnemius muscles were extracted from 75-day-old ALS SOD1^G93A mice received with either PBS (control) or the present peptide (FD1, FD2, FD3 or FD4) and analyzed by immunostaining. In brief, the gastrocnemius muscles fixed with paraformaldehyde (PFA) were mounted on glass slides and treated with 2% TRITON™ for one hour. After blocking with PBS containing 5% bovine serum albumin (BSA) for 2 hours, the antibody against either synaptic vesicle protein (synapsin) or alpha-Bungarotoxin (α-BTX) was added to the slides, followed by incubating at 4° C. for 16 hours. The slides were washed with PBS containing 2% TRITON™ for three times, and then Cy2-conjugated anti-rabbit antibody and ALEXA FUOR™ 647-conjugated anti-mouse antibody were respectively added to the slides, followed by incubating at 4° C. for 16 hours. The slides were washed with PBS containing 2% TRITON™ for three times. The axon terminal of motoneurons via synapsin labeled by green fluorescent signal, while detected the acetylcholine receptor on motor endplates via α-BTX labeled by red fluorescent signal. […]. The percentage of yellow signal (green signal overlapped with red signal) among total red signal shown on the 600× magnified image area (400×400 pixels) of muscle sample from PBS- and peptide-injected SOD1-G93A ALS mouse was calculated using software. Each experiment was calculated from 13-15 images.

[2] = test system: Tg(mnxl:GFP) zebrafish embryos; assay: Axonal branching of motor neurons in Tg(mnxl:GFP) zebrafish embryos; assay type: in vivo; conditions: microinjected into brain chamber at 20 hpf, examined at 30 hpf; compared to untreated and 16-a.a.-injected control groups
Description: The branched primary motor neurons (PMN) derived from caudal primary (CaP) motoneurons located at somites from 11th to 20th of Tg(mnxl:GFP) zebrafish embryos at 30 hours post fertilization (hpf) was examined. The untreated embryos served as control group, the embryos injected with an arbitrary non-functional 16 a.a. served as mock control group, while experimental groups were embryos injected with FD1, FD2, FD3 or FD4. […] Each data was averaged from three independent experiments.
The PBS and present peptides (i.e., FD1, FD2, FD3 and FD4) were respectively microinjected into the brain chamber of Tg (mnxl:GFP) embryos at 20 hpf. After 10 hours, the control embryos, mock control embryos and experimental embryos were monitored by anatomic microscope equipped with fluorescence system and digital camera.

ALS SOD1G93A mice [3] = assay: Moving capability of ALS model mice (SOD1 G93A); assay type: in vivo, mouse; conditions: 250 ug (about 10 mg/Kg) i.v. weekly from day 60; measured at 124 days after birth; vs PBS-injected control ALS mice
Description: as §1
The moving capability of ALS model mice (SOD1 G93A) injected with PBS or the present peptide (i.e., FD1, FD2, FD3 or FD4) was determined via measuring the moving trajectory of each treated mouse at 124 days after birth.

[4] = test system: phosphorylated cofilin (p-cofilin); assay: Western blot of phosphorylated cofilin (p-cofilin) in treated NSC34 cells; assay type: cell-based, mouse; conditions: NSC34 cells in NogoA-overexpressed Sol8 CM with peptide, compared to PBS control normalized as 1
Description: (§2) NSC34 cells (mouse Neuroblastoma x Spinal Cord-34 cell line) (RRID:CVCL_D356) were cultured in DMEM medium containing 10% FBS, 100 units/ml penicillin and 1% streptomycin. To investigate the effect of the present peptides (including FD1, FD2, FD3 and FD4) on neurons, NSC34 cells were cultivated in differentiation medium (DMEM medium containing 2.5% FBS, 100 units/ml penicillin and 1% streptomycin) for 24 hours, and then continued cultivating in CM obtained from culturing Sol8-NogoA cells (Sol8-NogoA CM) with or without addition of the present peptide (i.e., FD1, FD2, FD3 or FD4) in an amount of 66 ng/ml. The CM with or without containing the present peptide was refreshed daily. Cells were fixed with paraformaldehyde (PFA) for 48 hours, followed by measuring the length of neurite outgrowth using software based the neurites shown on microscopic image. Each data was averaged from three independent experiments and the length presented in each time was averaged from more than 100 counting cells. The effect of the present peptide on improving neurite outgrowth was determined by comparing the neurite length of NSC34 cells treated with the present peptide in Sol8-NogoA CM with that of NSC34 cells treated with phosphate buffered saline (PBS; serving as a control group) in Sol8-NogoA CM.
The total proteins extracted from treated NSC34 cells were analyzed by sodium dodecyl-sulfate polyacrylamide gel electrophoresis (SDS-PAGE) on a 12% polyacrylamide gel. After electrophoresis, western blotting was performed. The protein levels of phosphorylated cofilin (p-cofilin) and alpha-tubulin contained in NSC34 cells cultured in medium with addition of either PBS (served as control) or the present peptide (i.e., FD1, FD2, FD3 or FD4) were determined using antibodies specifically against p-cofilin and alpha-tubulin, respectively. The intensity shown on the blot was quantified by software. Each data was averaged from three independent experiments. The relative intensity among groups was based on the comparison with that of control group set as 1.

NSC34 cells = assay: Neurite outgrowth of NSC34 cells cultured in Sol8-NogoA conditioned medium; assay type: cell-based, mouse; conditions: Sol8-NogoA CM with peptide 66 ng/ml, 48 hours; PBS in Sol8-NogoA CM 53.6 μm, PBS in Sol8 CM 99.4 μm
Description: . After 24-48 hours, the supernatant containing viral particles was collected and centrifuged at a speed of 1,250 rpm, followed by adding to Sol8 cells (ATCC, CRL-2174) pretreated with 8 μg/ml POLYBRENE®. 24 hour later, the fresh DMEM medium containing 10% fetal bovine serum (FBS), 100 units/ml penicillin, 1% streptomycin and 4 ug/ml puromycin was added to the Sol8 cells so as to obtain NogoA-overexpressed Sol8 cells.
The wild-type Sol8 cells and NogoA-overexpressed Sol8 cells (Sol8-NogoA cells) were respectively cultured and differentiated in DMEM medium containing 10% FBS, 100 units/ml penicillin and 1% streptomycin. Two days later, 1 μg/μl of doxycycline was added to the medium so as to induce the expression of target genes. The culture medium was collected and the fresh medium containing doxycycline was added to the Sol8-NogoA cells every 24 hours. The collected culture medium was then centrifuged at a speed of 3,000 rpm for 5 minutes at room temperature, and the supernatant was harvested therefrom served as CM for the following assays.
as §2

ALS SOD1G93A mice [5] = assay: Survival of ALS SOD1G93A mice; assay type: in vivo, mouse; conditions: 250 ug (about 10 mg/Kg) i.v. weekly from day 60; for cumulated survival rate compared to PBS-injected control mice: 5 mice per group vs 7 PBS controls; for average survival days: 5 mice per group, PBS control 130.0
Description: as §1
The initial total number of ALS mice in each group (7 and 5 samples for control and FD-treated groups, respectively) was set as a 100% survival rate. During experimental period, once the ALS mouse was dead, the number and its survival days were recorded, and the cumulative survival rate was counted. When all ALS mice within the experimental group were dead, the cumulative survival rate was considered as 0%. In case that either the weight loss of a mouse was greater than 20% of original or a mouse that was not capable to eat and drink normally, euthanasia was performed and considered it as a non-survival sample. The survival days for each group were averaged from seven samples for PBS-injected control group and five samples for FD-injected experimental groups.

| Sequence | percentage of co-localized synapsin-1 and α-BTX (NMJ integrity) (ALS SOD1G93A mice [1]) | percentage of zebrafish embryos exhibiting branched motor neurons [2] | moving distance (ALS SOD1G93A mice [3]) | p-cofilin protein level [4] | neurite length of NSC34 cells (NSC34 cells) | cumulated survival rate compared to PBS-injected control mice (ALS SOD1G93A mice [5]) | average survival days (ALS SOD1G93A mice [5]) |
| --- | --- | --- | --- | --- | --- | --- | --- |
| WEAFARGTKALMDEVV [FD1, short peptide derived from human PGK1, 16 a.a] | significantly higher | significantly increased | significantly improved | significantly reduced | 89.2 μm | longer survival time | 140.0 days |
| WEAFARGTKALMRQVV [FD4, mutant of FD1, D13 substituted with R and E14 with Q] | significantly higher | significantly increased | significantly improved | significantly reduced | 95.8 μm | longer survival time | 139.0 days |
| WEAFARGTKPLMDEVV [FD2, mutant of FD1, alanine at position 10 substituted with proline] | significantly higher | significantly increased | significantly improved | significantly reduced | 66.6 μm | longer survival time | 147.0 days |
| WEAFARGTRALMDEVV [FD3, mutant of FD1, lysine at position 9 substituted with arginine] | significantly higher | significantly increased | significantly improved | significantly reduced | 88.2 μm | not shown difference | 130.8 days |
